Read-outs that look alike come from different tables or passages of the source.
Tests used:
Human CYP2D6 Supersomes = molecular target: T1, Human CYP2D6 Supersomes (Homo sapiens, UniProt P10635); assay: Metabolic stability in Human CYP2D6 Supersomes; type: in vitro ADME; details: Table 4a; for t1/2 (minutes) Experiment 2 / t1/2 (minutes) Experiment 1: 5 pmol/mL CYP2D6 supersomes, 0.25 μM test compound, 2 mM NADPH, 37° C.; for t1/2 (minutes) Experiment 1: parent remaining by LC-MS/MS; for t1/2 (minutes) Ave ± SD: average of Experiments 1 and 2
T1 construct: purchased Corning Gentest
Protocol: (§1) Evaluation of Metabolic Stability in Human CYP2D6 Supersomes™
(§2) Materials: CYP2D6 Supersomes™ were obtained from Corning Gentest. β-nicotinamide adenine dinucleotide phosphate, reduced form (NADPH), magnesium chloride (MgCl2), and dimethyl sulfoxide (DMSO) were purchased from Sigma-Aldrich. D-Eliglustat compounds were supplied by Concert Pharmaceuticals.
(§3) Determination of Metabolic Stability: 10 mM stock solutions of test compounds were prepared in DMSO. […] The CYP2D6 supersomes were diluted to 5 pmol/mL in 0.1 M potassium phosphate buffer, pH 7.4, containing 3 mM MgCl2. The diluted supersomes were added to wells of a 96-well deep-well polypropylene plate in triplicate. […] Reactions were initiated by addition of pre-warmed NADPH solution. The final reaction volume was 0.5 mL and contained 5 pmol/mL CYP2D6 supersomes, 0.25 μM test compound, and 2 mM NADPH in 0.1 M potassium phosphate buffer, pH 7.4, and 3 mM MgCl2. The reaction mixtures were incubated at 37° C. and 50 μL aliquots were removed at 0, 5, 10, 20, and 30 minutes and added to shallow-well 96-well plates which contained 50 μL of ice-cold ACN with internal standard to stop the reactions. The plates were stored at 4° C. for 20 minutes after which 100 μL of water was added to the wells of the plate before centrifugation to pellet precipitated proteins. Supernatants were transferred to another 96-well plate and analyzed for amounts of parent remaining by LC-MS/MS using an Applied Bio-systems mass spectrometer.
(§4) Data analysis: The in vitro t1/2s for test compounds were calculated from the slopes of the linear regression of % parent remaining (ln) vs incubation time relationship.
(§5) k=−[slope of linear regression of % parent remaining (ln) vs incubation time]
(§6) Data analysis was performed using Microsoft Excel Software.

CYP2D6 = molecular target: T2, CYP2D6 (Homo sapiens, UniProt P10635); assay: Metabolic stability in Human CYP2D6 Supersomes; type: in vitro ADME; details: human, recombinant human CYP2D6 Supersomes
T2 construct: purchased Corning Gentest
Protocol: as §1, §2, §3, §4, §5, §6

T1 sequence (P10635 whole entry): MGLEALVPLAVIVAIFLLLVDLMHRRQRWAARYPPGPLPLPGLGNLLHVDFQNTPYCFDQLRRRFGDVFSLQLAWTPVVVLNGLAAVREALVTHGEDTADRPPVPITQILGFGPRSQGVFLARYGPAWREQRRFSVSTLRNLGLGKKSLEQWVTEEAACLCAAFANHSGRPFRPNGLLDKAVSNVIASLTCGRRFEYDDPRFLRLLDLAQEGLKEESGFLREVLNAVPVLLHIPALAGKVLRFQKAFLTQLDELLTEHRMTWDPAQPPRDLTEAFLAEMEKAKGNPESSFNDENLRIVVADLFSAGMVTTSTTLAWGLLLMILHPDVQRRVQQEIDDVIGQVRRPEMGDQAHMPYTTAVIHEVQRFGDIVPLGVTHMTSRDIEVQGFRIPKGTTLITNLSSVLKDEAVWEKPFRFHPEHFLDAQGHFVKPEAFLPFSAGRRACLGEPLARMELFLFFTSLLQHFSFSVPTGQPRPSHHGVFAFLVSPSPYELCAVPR
T2 sequence (P10635 whole entry): as above

Molecule	t1/2 (minutes) Experiment 2 (Human CYP2D6 Supersomes) [min]	t1/2 (minutes) Experiment 1 (Human CYP2D6 Supersomes) [min]	t1/2 (minutes) Ave ± SD (Human CYP2D6 Supersomes) [min]	% Δ of t1/2 = [(deuterated species) − (nondeuterated species)](100)/(nondeuterated species) (Human CYP2D6 Supersomes; versus Eliglustat (D0)) [%]	half-life at 0.25 μM (CYP2D6; pH 7.4, Table 4a, 5 pmol/mL CYP2D6 supersomes, 0.25 μM test compound, 2 mM NADPH, 37° C., parent remaining by LC-MS/MS, read-out: t1/2 (minutes) Experiment 1) [min]	half-life at 0.25 μM (CYP2D6; pH 7.4, Table 4a, 5 pmol/mL CYP2D6 supersomes, 0.25 μM test compound, 2 mM NADPH, 37° C., read-out: t1/2 (minutes) Experiment 2) [min]	half-life at 0.25 μM (CYP2D6; pH 7.4, Table 4a, average of Experiments 1 and 2, read-out: t1/2 (minutes) Ave ± SD) [min]	half-life at 0.25 μM (CYP2D6; pH 7.4, Table 4b, Human CYP2D6 Supersomes, read-out: t1/2 (minutes) Experiment 1) [min]	half-life at 0.25 μM (CYP2D6; pH 7.4, Table 4b, Human CYP2D6 Supersomes, read-out: t1/2 (minutes) Experiment 2) [min]	half-life at 0.25 μM (CYP2D6; pH 7.4, Table 4b, average of Experiments 1 and 2, read-out: t1/2 (minutes) Ave ± SD) [min]
N-((1R,2R)-1-(2,3-dihydrobenzo[b][1,4]dioxin-6-yl)-1-hydroxy-3-(pyrrolidin-2-yl-3,3-d2)octan-d15-amide hemi-L-tartaric acid salt [Compound 171]	17.1	12.3	14.7 ± 3.4	119						
CCCCCCCC(=O)N[C@H](CN1CCCC1)[C@H](O)c1ccc2c(c1)OCCO2 [Eliglustat (D0), N-[2-(2,3-dihydro-1,4-benzodioxin-6-yl)-2(R)-hydroxy-1(R)-(pyrrolidin-1-ylmethyl)ethyl]octanamide, reference compound]					6.6	5.1	6.7 ± 1.5	9.7	6.3	8 ± 2.4
N-((1R,2R)-1-(2,3-Dihydrobenzo[b][1,4]dioxin-6-yl-2,2,3,3-d4)-1-hydroxy-3-(pyrrolidin-1-yl-d8)propan-2-yl)octanamide hemi-L-tartaric acid salt [Compound 118]	5.9	5.6	5.8 ± 0.2							
